Assay results reported in ChEMBL document CHEMBL3885881, “DrugMatrix”.

Species on record: Rattus norvegicus
Test: DrugMatrix - Regimen: Daily Repeat
Format: toxicity, organism-based, Sprague-Dawley
Design: regimen Daily Repeat, gender Male, age 6-8 weeks
Settings: in vivo, po, route oral GAVAGE, […]; for ABSOLUTE BASOPHIL / ABSOLUTE EOSINOPHIL / BASOPHIL / NUCLEATED RED BLOOD CELLS / EOSINOPHIL / ABSOLUTE MONOCYTE / ABSOLUTE SEGMENTED NEUTROPHIL / ERYTHROCYTE COUNT / HEMATOCRIT / HEMOGLOBIN / LEUKOCYTE COUNT / LYMPHOCYTE / MEAN CORPUSCULAR HEMOGLOBIN / MEAN CORPUSCULAR HEMOGLOBIN CONCENTRATION / MEAN CORPUSCULAR VOLUME / MONOCYTE / NEUTROPHIL / PLATELET COUNT: tissue Blood; for CREATININE / POTASSIUM / TOTAL BILIRUBIN / ALANINE AMINOTRANSFERASE / ALBUMIN / ASPARTATE AMINOTRANSFERASE / BLOOD UREA NITROGEN / CARBON DIOXIDE / CHLORIDE / CHOLESTEROL / CREATINE PHOSPHOKINASE / GLUCOSE / LACTATE DEHYDROGENASE / PHOSPHORUS / SODIUM / TOTAL PROTEIN / URIC ACID / LIPASE: tissue Plasma
[1] = 0 mg/kg, 72 h, dose level Control, time 3 day
[2] = 0 mg/kg, 120 h, dose level Control, time 5 day
[3] = 100 mg/kg, 72 h, dose level Low, time 3 day
[4] = 100 mg/kg, 120 h, dose level Low, time 5 day
[5] = 750 mg/kg, 72 h, dose level High, time 3 day
[6] = 750 mg/kg, 120 h, dose level High, time 5 day

COc1cc([C@@H]2c3cc4c(cc3[C@@H](O[C@@H]3O[C@@H]5CO[C@@H](C)O[C@H]5[C@H](O)[C@H]3O)[C@H]3COC(=O)[C@H]23)OCO4)cc(OC)c1O [ETOPOSIDE]
ABSOLUTE BASOPHIL [1]: 0 CELLS/uL
ABSOLUTE EOSINOPHIL [1]: 52.33 CELLS/uL
BASOPHIL [1]: 0%
NUCLEATED RED BLOOD CELLS [1]: 0 /100WBC
CREATININE [1]: 0.33 mg/dL
POTASSIUM [1]: 5.37 MEQ/L
TOTAL BILIRUBIN [1]: 0.2 mg/dL
ABSOLUTE BASOPHIL [2]: 0 CELLS/uL
ABSOLUTE EOSINOPHIL [2]: 0 CELLS/uL
BASOPHIL [2]: 0%
EOSINOPHIL [2]: 0%
TOTAL BILIRUBIN [2]: 0.37 mg/dL
ABSOLUTE BASOPHIL [3]: 0 CELLS/uL
ABSOLUTE EOSINOPHIL [3]: 0 CELLS/uL
ABSOLUTE MONOCYTE [3]: 20.33 CELLS/uL
ABSOLUTE SEGMENTED NEUTROPHIL [3]: 390.33 CELLS/uL
BASOPHIL [3]: 0%
EOSINOPHIL [3]: 0%
ERYTHROCYTE COUNT [3]: 4.86 x10E6/uL
HEMATOCRIT [3]: 29.9%
HEMOGLOBIN [3]: 12.13 G/DL
LEUKOCYTE COUNT [3]: 5.67 x10E3/uL
LYMPHOCYTE [3]: 90%
MEAN CORPUSCULAR HEMOGLOBIN [3]: 24.93 pg
MEAN CORPUSCULAR HEMOGLOBIN CONCENTRATION [3]: 40.57 G/DL
MEAN CORPUSCULAR VOLUME [3]: 61.53 fL
MONOCYTE [3]: 0.33%
NEUTROPHIL [3]: 9.67%
NUCLEATED RED BLOOD CELLS [3]: 0 /100WBC
PLATELET COUNT [3]: 1214.33 x10E3/uL
ALANINE AMINOTRANSFERASE [3]: 36.67 u/L
ALBUMIN [3]: 3.7 G/DL
ASPARTATE AMINOTRANSFERASE [3]: 67.67 u/L
BLOOD UREA NITROGEN [3]: 7.67 mg/dL
CARBON DIOXIDE [3]: 27 mmol/L
CHLORIDE [3]: 102.67 MEQ/L
CHOLESTEROL [3]: 92 mg/dL
CREATINE PHOSPHOKINASE [3]: 255.67 u/L
CREATININE [3]: 0.23 mg/dL
GLUCOSE [3]: 185 mg/dL
LACTATE DEHYDROGENASE [3]: 162.33 u/L
PHOSPHORUS [3]: 11 mg/dL
POTASSIUM [3]: 4.69 MEQ/L
SODIUM [3]: 145 MEQ/L
TOTAL BILIRUBIN [3]: 0.1 mg/dL
TOTAL PROTEIN [3]: 5.5 G/DL
URIC ACID [3]: 0.8 mg/dL
ABSOLUTE BASOPHIL [4]: 0 CELLS/uL
ABSOLUTE EOSINOPHIL [4]: 0 CELLS/uL
ABSOLUTE MONOCYTE [4]: 12 CELLS/uL
ABSOLUTE SEGMENTED NEUTROPHIL [4]: 593.67 CELLS/uL
BASOPHIL [4]: 0%
EOSINOPHIL [4]: 0%
ERYTHROCYTE COUNT [4]: 4.82 x10E6/uL
HEMATOCRIT [4]: 30.6%
HEMOGLOBIN [4]: 12.2 G/DL
LEUKOCYTE COUNT [4]: 4.43 x10E3/uL
LYMPHOCYTE [4]: 86%
MEAN CORPUSCULAR HEMOGLOBIN [4]: 25.37 pg
MEAN CORPUSCULAR HEMOGLOBIN CONCENTRATION [4]: 39.9 G/DL
MEAN CORPUSCULAR VOLUME [4]: 63.67 fL
MONOCYTE [4]: 0.33%
NEUTROPHIL [4]: 13.67%
NUCLEATED RED BLOOD CELLS [4]: 0 /100WBC
PLATELET COUNT [4]: 1205.67 x10E3/uL
ALANINE AMINOTRANSFERASE [4]: 53.33 u/L
ALBUMIN [4]: 3.97 G/DL
ASPARTATE AMINOTRANSFERASE [4]: 81 u/L
BLOOD UREA NITROGEN [4]: 8.33 mg/dL
CHLORIDE [4]: 104.33 MEQ/L
CHOLESTEROL [4]: 87.67 mg/dL
CREATINE PHOSPHOKINASE [4]: 278.33 u/L
CREATININE [4]: 0.3 mg/dL
GLUCOSE [4]: 157 mg/dL
LACTATE DEHYDROGENASE [4]: 65.67 u/L
LIPASE [4]: 8.67 u/L
PHOSPHORUS [4]: 9.87 mg/dL
POTASSIUM [4]: 5.33 MEQ/L
SODIUM [4]: 145.8 MEQ/L
TOTAL BILIRUBIN [4]: 0.1 mg/dL
TOTAL PROTEIN [4]: 5.6 G/DL
URIC ACID [4]: 0.4 mg/dL
ABSOLUTE BASOPHIL [5]: 0 CELLS/uL
ABSOLUTE EOSINOPHIL [5]: 0 CELLS/uL
ABSOLUTE MONOCYTE [5]: 23 CELLS/uL
ABSOLUTE SEGMENTED NEUTROPHIL [5]: 326.67 CELLS/uL
BASOPHIL [5]: 0%
EOSINOPHIL [5]: 0%
ERYTHROCYTE COUNT [5]: 4.79 x10E6/uL
HEMATOCRIT [5]: 30.9%
HEMOGLOBIN [5]: 12.47 G/DL
LEUKOCYTE COUNT [5]: 4 x10E3/uL
LYMPHOCYTE [5]: 91.33%
MEAN CORPUSCULAR HEMOGLOBIN [5]: 26 pg
MEAN CORPUSCULAR HEMOGLOBIN CONCENTRATION [5]: 40.33 G/DL
MEAN CORPUSCULAR VOLUME [5]: 64.5 fL
MONOCYTE [5]: 0.67%
NEUTROPHIL [5]: 8%
NUCLEATED RED BLOOD CELLS [5]: 0 /100WBC
PLATELET COUNT [5]: 1133.33 x10E3/uL
ALANINE AMINOTRANSFERASE [5]: 36.33 u/L
ALBUMIN [5]: 3.77 G/DL
ASPARTATE AMINOTRANSFERASE [5]: 71 u/L
BLOOD UREA NITROGEN [5]: 9 mg/dL
CARBON DIOXIDE [5]: 26 mmol/L
CHOLESTEROL [5]: 79.67 mg/dL
CREATINE PHOSPHOKINASE [5]: 235.33 u/L
CREATININE [5]: 0.1 mg/dL
GLUCOSE [5]: 189 mg/dL
LACTATE DEHYDROGENASE [5]: 94.67 u/L
LIPASE [5]: 11.33 u/L
PHOSPHORUS [5]: 11.07 mg/dL
POTASSIUM [5]: 4.56 MEQ/L
SODIUM [5]: 142.5 MEQ/L
TOTAL BILIRUBIN [5]: 0.1 mg/dL
TOTAL PROTEIN [5]: 5.4 G/DL
URIC ACID [5]: 0.37 mg/dL
ABSOLUTE BASOPHIL [6]: 0 CELLS/uL
ABSOLUTE EOSINOPHIL [6]: 0 CELLS/uL
ABSOLUTE MONOCYTE [6]: 44.5 CELLS/uL
ABSOLUTE SEGMENTED NEUTROPHIL [6]: 165.5 CELLS/uL
BASOPHIL [6]: 0%
EOSINOPHIL [6]: 0%
ERYTHROCYTE COUNT [6]: 6.19 x10E6/uL
HEMATOCRIT [6]: 38.1%
HEMOGLOBIN [6]: 15.5 G/DL
LEUKOCYTE COUNT [6]: 2.85 x10E3/uL
LYMPHOCYTE [6]: 93%
MEAN CORPUSCULAR HEMOGLOBIN [6]: 25.05 pg
MEAN CORPUSCULAR HEMOGLOBIN CONCENTRATION [6]: 40.7 G/DL
MEAN CORPUSCULAR VOLUME [6]: 61.55 fL
MONOCYTE [6]: 1.5%
NEUTROPHIL [6]: 5.5%
NUCLEATED RED BLOOD CELLS [6]: 0 /100WBC
PLATELET COUNT [6]: 975 x10E3/uL
ALANINE AMINOTRANSFERASE [6]: 21.5 u/L
ALBUMIN [6]: 4.1 G/DL
ASPARTATE AMINOTRANSFERASE [6]: 87 u/L
BLOOD UREA NITROGEN [6]: 106.5 mg/dL
CARBON DIOXIDE [6]: 28 mmol/L
CHLORIDE [6]: 92 MEQ/L
CHOLESTEROL [6]: 83.5 mg/dL
CREATINE PHOSPHOKINASE [6]: 328.5 u/L
CREATININE [6]: 0.69 mg/dL
GLUCOSE [6]: 115 mg/dL
LACTATE DEHYDROGENASE [6]: 82 u/L
LIPASE [6]: 10 u/L
PHOSPHORUS [6]: 9.8 mg/dL
POTASSIUM [6]: 6.46 MEQ/L
SODIUM [6]: 133.6 MEQ/L
TOTAL BILIRUBIN [6]: 0.15 mg/dL
TOTAL PROTEIN [6]: 6.3 G/DL
URIC ACID [6]: 0.35 mg/dL
